Where two headings read alike, the source gives them in different places.
Tests used:
Type in all cases: cell-based, human
[1] = tested on: pERK in Lovo cells (KRAS-G13D); assay: Phospho-ERK inhibition (AlphaLISA), Lovo; details: for Lovo pERK % Ymin: value in parentheses
Experimental: (§1) All cancer cell lines (A375, A101D, A2058, RKO, HT29 SK-MEL 30, IPC298, HepG2, HCT-116, Lovo, SWV620, SW480, NCI-H358, NCI-H2122, Calu-6, NCIH2087, NCIH1755, NCIH1666 and Mewo) were obtained from ATCC and cultured in RPMI-1640 medium (Gibco) supplemented with 5% heat inactivated fetal bovine serum (FBS, Wisent) at 37° C. under 5% CO2. Cells were maintained in T175 flasks (Greiner). They were passaged by removing the culture medium, washing once in 10 mL of room temperature Phosphate Buffered Saline (PBS; Wisent) and incubating at 37° C. with 2 mL of 0.05% Trypsin (Thermo-Fisher). Trypsin was then inactivated by adding complete growth medium and the cells were then replated in a T175 culture dish at the appropriate dilution. All cell lines were routinely tested for mycoplasma contamination. Tissue type and mutational status of each cell line can be found in Table B.
(§2) AlphaLISA® SureFire® Ultra™ p-ERK 1/2 (Thr202/Tyr204) analysis was conducted on cells plated in 100 μL of complete RPMI-1640 growth medium in 96-well flat-bottomed transparent dishes (Costar) at a density indicated in Table C. Cells were maintained overnight at 37° C. under 5% CO2 before treatment with compounds' dilution series for one hour. The cell density in cells/cm^2 corresponds to cell number divided by the area of one well of a 96-well plate ([…]).
(§3) In a dilution series 100 μL/well of test substance dilution prepared in complete RPMI-1640 growth media was added to the cells. The dilution series is selected so that ten concentrations cover a range from 10 μM to 0.33 nM. If necessary the initial concentration of 10 μM is increased to 100 μM or lowered to 1 μM (as in the case of A375 and H1666 cells, which are generally more sensitive to the compounds) and further dilution is carried out accordingly. The final concentration of DMSO in the assay is set at 0.5%.
(§4) After treatment, media was removed and cells were lysed in 50 μL of 1× AlphaScreen Ultra Lysis Buffer (Perkin Elmer). The AlphaLISA® SureFire® Ultra™ p-ERK 1/2 (Thr202/Tyr2O4) (PerkinElmer) reactions were performed with 5 μL of cell lysate according to the manufacturer's specifications in 384-well proxyplates (Perkin Elmer) followed by overnight incubation of the reactions at room temperature in a humidified chamber. After completion of the reactions, the signals were recorded on an EnVision plate reader (Perkin Elmer) using built in AlphaLISA® settings.
(§5) The effect of each compound dilution on the pERK signal was expressed in % inhibition and calculated as follows. An internal 100% inhibition control ([…] trametinib, cat #HY-10999; MedChem Express; CAS #871700-17-3) was included in each plate and used as a measure of pERK background. First, the value obtained for trametinib was subtracted from each data point. The average of DMSO (vehicle) controls (set as 0% inhibition) was established and used to calculate % inhibition: % inhibition=100*(1-((pERK signalcompound)/(pERK signalDMSO)))
(§6) The ability of each compound to inhibit pERK signal was expressed as an IC50 value obtained by plotting the inhibition values for each data point of a dilution series and fitting the obtained curves using a log(agonist) versus response-variable slope (four parameters) function using GraphPadPrism (V7.0) or Dotmatics Screening Ultra platform.
(§7) When present, paradoxical pERK induction is inferred from the negative % inhibition values observed in the pERK IC50 curves of a compound.

[2] = tested on: pERK in SW620 cells (KRAS-G12V); assay: Phospho-ERK inhibition (AlphaLISA), SW620; details: for SW620 pERK % Ymin: SW620, value in parentheses
Experimental: as §1, §2, §3, §4, §5, §6, §7

A375 cells (BRAF V600E) = assay: Proliferation inhibition (CellTiter-Glo), A375; details: A375, 3 days, read-out: A375 Prolif. EC50
Experimental: as §1
(§8) CellTiter-Glo® viability analysis was conducted on cells plated in 100 μL of complete RPMI-1640 growth medium in 96-well flat-bottomed white opaque plates (Greiner or Croning) at a density indicated in Table E (for each CCL, number of cells plated per well of a 96-well plate to perform the CellTiter-Glo® cell viability assay). The cell density in cells/cm^2 would correspond to cell number divided by the area of one well of a 96-well plate (0.32 cm^2). […]
(§9) After 3 days of incubation, the growth media were removed by aspiration and 60 μL of diluted CellTiter-Glo® reagent (10 μL CellTiter-Glo® reagent+50 μL of PBS) was added to each well. […] Luminescence signals were then acquired on a Synergy Neo2 plate reader (Biotek).
(§10) The effect of each compound dilution on the proliferation of cancer cell lines was expressed in % inhibition and calculated as follows. […]
as §6, with “proliferation” for “pERK signal”, “a EC50” for “an IC50”, “effect” for “inhibition”

HepG2 cells (NRAS-Q61L) = assay: Proliferation inhibition (CellTiter-Glo), HepG2; details: HepG2, 3 days, read-out: HepG2 Prolif. EC50
Experimental: as §1, §8, §9, §10
as §6, with “proliferation” for “pERK signal”, “a EC50” for “an IC50”, “effect” for “inhibition”

[3] = tested on: HCT-116 cells (KRAS G13D); assay: Proliferation inhibition (CellTiter-Glo), HCT116; details: HCT116, 3 days, read-out: HCT116 Prolif. EC50
Experimental: as §1, §8, §9, §10
as §6, with “proliferation” for “pERK signal”, “a EC50” for “an IC50”, “effect” for “inhibition”

SW620 cells (KRAS-G12V) = assay: Proliferation inhibition (CellTiter-Glo), SW620; details: SW620, 3 days, read-out: SW620 Prolif. EC50
Experimental: as §1, §8, §9, §10
as §6, with “proliferation” for “pERK signal”, “a EC50” for “an IC50”, “effect” for “inhibition”

| IC50 ([1]; Homo sapiens, LoVo) | IC50 ([2]; Homo sapiens, SW-620) | EC50 (A375 cells (BRAF V600E); Homo sapiens, A-375, 72 h) | EC50 (HepG2 cells (NRAS-Q61L); Homo sapiens, 72 h) | EC50 ([3]; Homo sapiens, HCT-116, 72 h) | EC50 (SW620 cells (KRAS-G12V); Homo sapiens, SW-620, 72 h) | IC50 ([1]; Lovo) | IC50 ([2]; SW620) | EC50 (A375 cells (BRAF V600E)) | EC50 (HepG2 cells (NRAS-Q61L)) | EC50 [3] | EC50 (SW620 cells (KRAS-G12V)) | SMILES | Lovo pERK % Ymin ([1]; Lovo) | SW620 pERK % Ymin [2] |
| --- | --- | --- | --- | --- | --- | --- | --- | --- | --- | --- | --- | --- | --- | --- |
| < 30 nM | 30 to 300 nM | < 30 nM | < 30 nM | 300 to 3000 nM | 300 to 3000 nM |  |  |  |  |  |  | Cc1ccc2c(Nc3cccc(Cl)c3F)nccc2c1NC(=O)c1csc2c(N)ncnc12 [Belvarafenib, reference compound] | −12% | −151% |
|  |  |  |  |  |  | 30 to 300 nM | 30 to 300 nM | < 30 nM | < 30 nM | 300 to 3000 nM | 300 to 3000 nM | Nc1cccc2c1ncn2-c1ccc2ncnc(Nc3c(F)ccc(NS(=O)(=O)c4cccc(Cl)c4Cl)c3F)c2n1 [Example 99] | −15% | −11% |
|  |  |  |  |  |  | 30 to 300 nM | 30 to 300 nM | < 30 nM | < 30 nM | 300 to 3000 nM | 300 to 3000 nM | CC1(O)CCN(c2cccc3c2ncn3-c2ccc3ncnc(Nc4c(F)ccc(NS(=O)(=O)c5cccc(Cl)c5Cl)c4F)c3n2)CC1 [Example 524] | −5% | −4% |

Source: patent US12139488B2, “Pyrido[3,2-d]pyrimidine compounds uses thereof for treating a proliferative disease” (Universite de Montreal, priority 2021, dated 2024)
